In ChEMBL document CHEMBL2375303, “Molecular determinants for nuclear receptors selectivity: chemometric analysis, dockings and site-directed mutagenesis of dual peroxisome proliferator-activated receptors α/γ agonists” (Eur J Med Chem, 2013):

Legend:
Assay type in all cases: cell-based
[1] = target: T1, Peroxisome proliferator-activated receptor gamma (Homo sapiens, UniProt P37231); assay: Agonist activity at GAL4-fused PPARgamma (unknown origin) expressed in human HepG2 cells by transactivation assay
T1 sequence (P37231 whole entry): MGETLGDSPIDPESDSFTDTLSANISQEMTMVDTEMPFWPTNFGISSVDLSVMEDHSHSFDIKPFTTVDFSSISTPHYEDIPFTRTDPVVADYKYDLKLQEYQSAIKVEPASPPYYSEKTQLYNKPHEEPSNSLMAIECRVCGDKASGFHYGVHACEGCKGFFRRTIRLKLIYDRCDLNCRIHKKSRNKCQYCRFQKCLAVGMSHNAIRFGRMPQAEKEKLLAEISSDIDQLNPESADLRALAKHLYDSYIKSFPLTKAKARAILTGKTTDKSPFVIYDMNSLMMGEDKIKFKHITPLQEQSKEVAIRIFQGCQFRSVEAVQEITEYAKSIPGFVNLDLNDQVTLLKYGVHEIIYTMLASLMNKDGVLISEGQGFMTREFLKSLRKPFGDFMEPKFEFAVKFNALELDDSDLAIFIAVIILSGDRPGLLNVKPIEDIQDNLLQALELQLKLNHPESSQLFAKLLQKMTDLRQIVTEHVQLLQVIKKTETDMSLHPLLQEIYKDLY

[2] = target: T2, Peroxisome proliferator-activated receptor alpha (Homo sapiens, UniProt Q07869); assay: Agonist activity at GAL4-fused PPARalpha (unknown origin) expressed in human HepG2 cells by transactivation assay
T2 sequence (Q07869 whole entry): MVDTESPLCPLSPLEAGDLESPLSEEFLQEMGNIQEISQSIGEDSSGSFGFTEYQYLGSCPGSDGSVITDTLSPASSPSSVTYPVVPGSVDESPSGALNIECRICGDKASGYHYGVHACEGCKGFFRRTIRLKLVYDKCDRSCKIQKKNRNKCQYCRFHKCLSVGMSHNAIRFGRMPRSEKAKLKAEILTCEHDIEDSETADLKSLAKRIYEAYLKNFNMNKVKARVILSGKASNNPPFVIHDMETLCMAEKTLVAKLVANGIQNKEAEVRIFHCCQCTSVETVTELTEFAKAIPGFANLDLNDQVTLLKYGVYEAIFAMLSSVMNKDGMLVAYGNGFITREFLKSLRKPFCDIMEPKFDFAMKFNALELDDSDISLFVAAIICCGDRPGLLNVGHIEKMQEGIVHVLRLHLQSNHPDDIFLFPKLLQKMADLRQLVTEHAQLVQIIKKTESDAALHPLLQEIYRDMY

[3] = Agonist activity at GAL4-fused PPARgamma M463A mutant (unknown origin) expressed in human HepG2 cells by transactivation assay
[4] = target: Peroxisome proliferator-activated receptor alpha (Homo sapiens, UniProt Q07869, A454M); assay: Agonist activity at GAL4-fused PPARalpha A454M mutant (unknown origin) expressed in human HepG2 cells by transactivation assay
Sequence of Peroxisome proliferator-activated receptor alpha (Homo sapiens, UniProt Q07869, A454M) (Q07869 whole entry A454M, the tested form may be a part): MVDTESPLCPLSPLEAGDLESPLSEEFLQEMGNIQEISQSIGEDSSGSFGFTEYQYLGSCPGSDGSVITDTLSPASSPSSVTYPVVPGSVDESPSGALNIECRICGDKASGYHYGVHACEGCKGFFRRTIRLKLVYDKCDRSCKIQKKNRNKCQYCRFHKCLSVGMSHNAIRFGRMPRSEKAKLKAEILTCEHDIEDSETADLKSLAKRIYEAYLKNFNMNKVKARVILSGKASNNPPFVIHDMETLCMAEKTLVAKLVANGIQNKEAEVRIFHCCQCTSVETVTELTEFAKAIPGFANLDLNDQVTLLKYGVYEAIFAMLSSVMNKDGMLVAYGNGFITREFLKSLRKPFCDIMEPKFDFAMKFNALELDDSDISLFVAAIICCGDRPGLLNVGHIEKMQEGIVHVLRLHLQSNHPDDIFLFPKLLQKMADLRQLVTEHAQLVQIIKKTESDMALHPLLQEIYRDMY

| EC50 ([1]; read-out: pEC50 (converted)) [nM] | EC50 ([2]; read-out: pEC50 (converted)) [nM] | EC50 [3] [nM] | EC50 [4] [nM] | EC50 ([1]; read-out: EC50) [nM] | EC50 ([2]; read-out: EC50) [nM] | Compound |
| --- | --- | --- | --- | --- | --- | --- |
| 7080 | 2400 | – | – | – | – | O=C(O)[C@H](CCc1ccccc1)Oc1ccc(Cl)cc1 |
| 1260 | 3020 | – | – | – | – | O=C(O)[C@H](CCOc1ccccc1)Oc1ccc(Cl)cc1 |
| 912 | 589 | – | – | – | – | O=C(O)[C@H](CCCc1ccccc1)Oc1ccc(Cl)cc1 |
| 316 | 631 | – | – | – | – | O=C(O)[C@H](CCCc1ccc(Cl)cc1)Oc1ccc(Cl)cc1 |

More lines, now with the values behind:

| Compound | EC50 ([1]; read-out: pEC50 (converted)) [nM] | EC50 ([2]; read-out: pEC50 (converted)) [nM] | EC50 [3] [nM] | EC50 [4] [nM] | EC50 ([1]; read-out: EC50) [nM] | EC50 ([2]; read-out: EC50) [nM] |
| --- | --- | --- | --- | --- | --- | --- |
| CN(CCOc1ccc(CC2SC(=O)NC2=O)cc1)c1ccccn1 (stereo unspecified) [ROSIGLITAZONE] | – | – | 2 | – | – | – |
| O=C(O)[C@H](Cc1ccc(Oc2ccccc2)cc1)Oc1ccc(Cl)cc1 | 26.9 | 871 | 340 | 900 | 320 | 3900 |
| O=C(O)[C@H](Cc1ccccc1)Oc1ccc(-c2ccc(Cl)cc2)cc1 | 8910 | 3890 | – | – | – | – |
| O=C(O)[C@H](Cc1ccc(-c2cccs2)cc1)Oc1ccc(Cl)cc1 | 64.6 | 589 | – | – | – | – |
| O=C(O)[C@H](Cc1ccc(-c2ccccc2)cc1)Oc1ccc(Cl)cc1 | 49 | 1120 | – | – | – | – |
| O=C(O)[C@H](Cc1ccccc1)Oc1ccc(Oc2ccccc2)cc1 | 1580 | 891 | – | – | – | – |
| O=C(O)[C@H](COc1ccccc1)Oc1ccc(Cl)cc1 | 1660 | 2510 | – | – | – | – |
| O=C(O)[C@H](Cc1ccc(C(F)(F)F)cc1)Oc1ccc(Cl)cc1 | 417 | 3630 | – | – | – | – |
| O=C(O)[C@H](Cc1ccccc1)Oc1ccc(Cc2ccccc2)cc1 | – | – | 470 | 400 | 600 | 40 |
